Source: PMC6650409, “Modeling the binding of diverse ligands within the Ah receptor ligand binding domain” (Scientific Reports, 2019)
Residue numbers refer to the chain shown, from its start. pEC50, pIC50: −log10 of the molar value. Where two headings read alike, the source gives them in different places.

How the values were obtained:
[1] = target: T1, M342A mutant AhR (Mus musculus, UniProt P30561, M342A); experiment: [3H]TCDD competitive ligand binding, M342A mutant AhR; details: for change of relative binding affinity versus wild-type AhR: M342A substitution, in words; for pIC50: Table S6, AhR mutant M342A
T1 construct: made in house; host or cells: in vitro, Promega TNT Quick rabbit reticulocyte lysate
T1 sequence (P30561 10-848 M342A): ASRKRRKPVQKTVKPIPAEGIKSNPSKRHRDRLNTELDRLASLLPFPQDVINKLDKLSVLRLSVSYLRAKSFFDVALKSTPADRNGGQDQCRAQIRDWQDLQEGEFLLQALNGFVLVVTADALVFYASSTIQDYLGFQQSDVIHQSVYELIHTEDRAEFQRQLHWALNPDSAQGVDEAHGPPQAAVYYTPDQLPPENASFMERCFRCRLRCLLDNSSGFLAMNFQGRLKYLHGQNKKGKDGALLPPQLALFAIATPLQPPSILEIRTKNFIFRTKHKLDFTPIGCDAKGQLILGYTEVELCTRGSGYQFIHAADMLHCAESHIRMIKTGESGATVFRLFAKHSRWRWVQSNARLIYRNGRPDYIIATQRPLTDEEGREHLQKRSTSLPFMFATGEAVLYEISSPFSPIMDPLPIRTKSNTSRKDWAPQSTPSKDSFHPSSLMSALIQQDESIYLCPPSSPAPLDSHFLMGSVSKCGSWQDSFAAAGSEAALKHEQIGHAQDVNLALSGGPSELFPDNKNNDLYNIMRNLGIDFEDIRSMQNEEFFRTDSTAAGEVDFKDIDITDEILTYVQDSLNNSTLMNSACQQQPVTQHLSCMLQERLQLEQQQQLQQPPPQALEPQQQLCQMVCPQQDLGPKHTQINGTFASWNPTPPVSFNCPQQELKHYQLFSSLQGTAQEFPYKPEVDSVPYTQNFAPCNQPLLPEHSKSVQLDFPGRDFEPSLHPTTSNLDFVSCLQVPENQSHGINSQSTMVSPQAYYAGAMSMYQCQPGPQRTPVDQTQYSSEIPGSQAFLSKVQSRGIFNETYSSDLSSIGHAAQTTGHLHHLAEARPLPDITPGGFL
Procedure: The mouse AhR (mAhR) and ARNT (mARNT) expression plasmids, mβAhR/pcDNA3 and mβArnt/pcDNA3, have been previously described. Point mutations of mβAhR/pcDNA3 were carried out using the QuikChange Lightning Mutagenesis Kit (Agilent Technologies) and all constructs were verified by sequencing.
(§1) [^3H]TCDD specific binding to wild-type or mutant mAhRs synthesized in vitro using the Promega TNT Quick coupled transcription/translation rabbit reticulocyte lysate kit (Madison, WI) was carried out as previously described. [^3H]TCDD specific binding was determined by subtracting the amount of [^3H]TCDD bound to unprogrammed lysate (nonspecific binding) from the total amount of [^3H]TCDD binding to lysate containing in vitro expressed AhR. The amount of [^3H]TCDD specific binding remaining in the presence of the indicated competitor chemical was expressed as a percent of the total [^3H]TCDD specific binding. The relative binding affinity (IC50) of each chemical was determined from concentration-dependent competitive inhibition curves obtained using [^3H]TCDD and increasing concentrations of each test chemical and the mean IC50 value was determined using three-parameter non-linear regression.

[2] = target: T2, mAhR (Mus musculus, UniProt P30561); experiment: biochemical; details: wild-type mAhR; for EC50: read-out: AhR DNAB -LogEC50 (converted)
T2 construct: made in house; host or cells: in vitro transcription/translation (rabbit reticulocyte lysate)
Procedure: Wild-type and mutant mAhRs and mARNT were synthesized in vitro in the presence of unlabeled L-methionine, the resulting mAhRs and mARNT translation mixtures and MEDGK (25 mM MOPS (3-(N-morpholino)propanesulfonic acid; pH 7.5), 1 mM EDTA, 1 mM dithiothreitol, 10% (v/v) glycerol, 150 mM KCl) were mixed in a 1:1:8 (v/v/v) ratio and incubated with DMSO (1% final concentration) or the indicated concentration of TCDD or test chemical for 2 hours at room temperature. An aliquot of each incubation was mixed with [^32P]-labeled double-stranded oligonucleotide containing the mouse AhR DNA binding site DRE3 (a dioxin responsive element from the upstream region of the murine Cyp1a1 gene[71]) and protein-DNA complexes resolved by gel retardation analysis as previously described in detail. Gels were visualized using a FLA9000 Fujifilm Imager and protein-DNA complexes quantitated with Fujifilm MultiGauge software. For potency measurements, reactions were incubated with increasing concentrations of the test chemical and the chemical concentration producing half maximal AhR:ARNT:DRE complex formation (EC50) determined.
T2 sequence (P30561 10-848): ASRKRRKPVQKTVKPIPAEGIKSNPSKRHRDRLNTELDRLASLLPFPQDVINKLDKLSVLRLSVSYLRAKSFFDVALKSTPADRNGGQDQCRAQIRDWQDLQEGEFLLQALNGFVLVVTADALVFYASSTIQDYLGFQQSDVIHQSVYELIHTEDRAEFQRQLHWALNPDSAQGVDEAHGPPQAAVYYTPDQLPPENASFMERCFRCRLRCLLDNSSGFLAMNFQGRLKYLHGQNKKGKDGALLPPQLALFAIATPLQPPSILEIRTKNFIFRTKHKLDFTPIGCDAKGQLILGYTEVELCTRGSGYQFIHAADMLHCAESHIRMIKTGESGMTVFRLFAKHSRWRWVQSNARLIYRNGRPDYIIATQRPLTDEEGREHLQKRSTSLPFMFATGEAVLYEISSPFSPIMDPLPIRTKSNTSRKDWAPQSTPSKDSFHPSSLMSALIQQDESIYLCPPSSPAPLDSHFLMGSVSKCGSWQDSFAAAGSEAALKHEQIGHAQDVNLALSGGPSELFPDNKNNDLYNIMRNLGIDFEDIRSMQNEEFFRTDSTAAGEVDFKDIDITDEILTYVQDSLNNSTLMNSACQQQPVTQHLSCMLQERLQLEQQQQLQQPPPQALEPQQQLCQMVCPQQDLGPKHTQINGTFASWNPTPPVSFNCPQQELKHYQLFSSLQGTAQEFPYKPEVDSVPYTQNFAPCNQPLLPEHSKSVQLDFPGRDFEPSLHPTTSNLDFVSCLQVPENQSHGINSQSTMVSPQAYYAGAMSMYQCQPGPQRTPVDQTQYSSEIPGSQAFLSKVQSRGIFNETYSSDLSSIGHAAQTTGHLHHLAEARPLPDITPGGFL
T2 sequence (P53762 whole entry partner): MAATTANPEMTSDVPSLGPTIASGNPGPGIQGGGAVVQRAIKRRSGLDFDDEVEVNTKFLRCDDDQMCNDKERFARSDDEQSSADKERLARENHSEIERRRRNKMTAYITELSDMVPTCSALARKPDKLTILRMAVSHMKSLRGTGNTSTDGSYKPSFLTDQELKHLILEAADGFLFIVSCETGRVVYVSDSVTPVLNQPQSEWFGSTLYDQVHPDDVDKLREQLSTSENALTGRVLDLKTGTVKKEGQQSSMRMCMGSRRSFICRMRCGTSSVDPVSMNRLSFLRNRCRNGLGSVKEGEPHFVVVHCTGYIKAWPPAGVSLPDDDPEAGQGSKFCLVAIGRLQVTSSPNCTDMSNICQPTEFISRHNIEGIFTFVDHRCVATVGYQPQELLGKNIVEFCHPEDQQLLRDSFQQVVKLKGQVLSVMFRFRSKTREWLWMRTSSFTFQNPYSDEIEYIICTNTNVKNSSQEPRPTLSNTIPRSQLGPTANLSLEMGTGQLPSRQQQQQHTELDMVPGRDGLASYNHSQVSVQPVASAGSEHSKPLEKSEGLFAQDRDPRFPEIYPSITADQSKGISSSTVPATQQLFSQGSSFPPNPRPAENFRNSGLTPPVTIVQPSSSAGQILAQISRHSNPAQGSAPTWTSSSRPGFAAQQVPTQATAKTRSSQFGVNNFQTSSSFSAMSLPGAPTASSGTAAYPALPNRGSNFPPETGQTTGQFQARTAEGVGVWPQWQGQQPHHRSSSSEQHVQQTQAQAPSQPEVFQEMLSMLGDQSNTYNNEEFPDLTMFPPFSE

[3] = target: T3, mAhR (Mus musculus, UniProt P30561); experiment: biochemical; type: binding
T3 construct: made in house; host or cells: in vitro, Promega TNT Quick coupled transcription/translation rabbit reticulocyte lysate
T3 sequence (P30561 10-848): T1 sequence (P30561 10-848 M342A) with A333M
Procedure: as §1

[4] = Table S1, wild-type mAhR, mean of nine independent reactions, read-out: AhR LB IC50
[5] = competition with [3H]TCDD, wild-type mAhR, values in text, read-out: relative AhR ligand binding affinity (IC50)
[6] = gel retardation, values in text, read-out: relative potency to stimulate AhR DNA binding in vitro (EC50)
[7] = Table S1, mean of nine independent reactions, read-out: AhR DNAB EC50

Structure (SMILES)	change of relative binding affinity versus wild-type AhR [1]	pIC50 [1]	EC50 ([2]; Table S1) [nM]	pIC50 [3, 4]	pIC50 [3, 5]	pEC50 [2, 6]	pEC50 [2, 7]	pEC50 ([2]; AhR DNAB EC50, Table S1, mean of nine independent reactions)	pEC50 ([2]; relative potency to stimulate AhR DNA binding in vitro (EC50), gel retardation, values in text)	pIC50 [3]	IC50 ([3]; Table S1, wild-type mAhR, read-out: AhR LB -LogIC50 (converted)) [nM]
Cc1ccc2cc3c(ccc4ccccc43)c3c2c1CC3 [3MC, 3-methylcholanthrene]	reduced	6.61	6.03	8.80	8.80	–	–	–	–	–	–
O=c1cc(-c2ccccc2)oc2ccc3ccccc3c12 [BNF]	not affected	8.02	–	8.14	8.14	6.86	–	–	–	–	–
c1ccc2c(c1)cc1ccc3cccc4ccc2c1c34 [BaP, Benzo(a)pyrene]	–	–	–	–	6.21	7.41	7.41	–	–	–	–
c1ccc2c(c1)ccc1cc3c(ccc4ccccc43)cc12 [DBA, dibenz(a,h)anthracene]	not affected	8.17	3.98	–	8.12	–	8.40	–	–	–	–
O=Cc1c2[nH]c3ccccc3c2cc2[nH]c3ccccc3c12 [FICZ, 6-formylindolo[3,2-b]carbazole]	–	10.68	–	8.99	9.00	8.37	–	–	–	–	–
Clc1ccc(-c2cc(Cl)c(Cl)c(Cl)c2)cc1Cl [PCB126, 3,3′4,4′5-pentachlorobiphenyl]	reduced	8.03	–	8.23	8.23	8.19	8.19	–	–	–	–
Clc1cc2c(cc1Cl)Oc1cc(Cl)c(Cl)cc1O2 [TCDD, 2,3,7,8-tetrachlorodibenzo-p-dioxin]	–	–	–	–	9.00	–	–	8.12	8.12	9.00	–
Clc1cc2oc3cc(Cl)c(Cl)cc3c2cc1Cl [TCDF, 2,3,7,8-tetrachlorodibenzofuran]	–	–	–	7.70	–	8.35	8.34	–	–	–	20
